Source: patent publication US20090137499A1, “BENZYLPHENYL GLUCOPYRANOSIDE DERIVATIVE” (priority 2006, published 2009)

Biological target: T1, human SGLT1 (Homo sapiens, UniProt P13866)
T1 construct: expressed in transfected cells
T1 sequence (P13866 1-664): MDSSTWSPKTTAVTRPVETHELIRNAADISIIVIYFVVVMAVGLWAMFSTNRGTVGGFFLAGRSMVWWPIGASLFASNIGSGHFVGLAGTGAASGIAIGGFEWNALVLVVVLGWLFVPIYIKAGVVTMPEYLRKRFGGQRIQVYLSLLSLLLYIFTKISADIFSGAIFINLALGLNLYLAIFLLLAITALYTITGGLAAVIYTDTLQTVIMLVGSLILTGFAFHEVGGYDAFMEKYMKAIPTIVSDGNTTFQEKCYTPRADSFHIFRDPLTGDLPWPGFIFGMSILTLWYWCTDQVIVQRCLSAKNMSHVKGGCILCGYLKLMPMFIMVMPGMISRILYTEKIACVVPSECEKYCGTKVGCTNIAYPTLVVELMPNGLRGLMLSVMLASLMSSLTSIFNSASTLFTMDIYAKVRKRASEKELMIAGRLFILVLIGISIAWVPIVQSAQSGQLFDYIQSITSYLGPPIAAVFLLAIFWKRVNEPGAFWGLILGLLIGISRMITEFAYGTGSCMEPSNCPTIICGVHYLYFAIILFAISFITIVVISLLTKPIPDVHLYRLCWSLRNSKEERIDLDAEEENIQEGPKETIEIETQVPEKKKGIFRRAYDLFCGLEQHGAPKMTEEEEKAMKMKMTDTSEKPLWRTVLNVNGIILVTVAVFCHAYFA
Experiment: Determination of SGLT1 inhibiting activity using human SGLT1 expressing cell ([14C]-α-methyl-D-glucopyranoside uptake)
Assay type: cell-based
Conditions: HEK-SGLT1 cells, 1 mM [14C]-α-methyl-D-glucopyranoside, 37° C., 30 min
Procedure: Determination of SGLT1 Inhibiting Activity Using Human SGLT1 Expressing Cell
1) Preparation of Vector Expressing Human SGLT1 cDNA in Animal Cell
Amplification was performed by PCR using human SGLT1 cDNA clone (Origene: Clone Number, TC119918; GenBank accession number, NM 000343) as a template. The sense oligonucleotide primer for PCR was 5′-[…]-3′ (Primer 1: SEQ ID NO: 1 in the sequence listing),
and the antisense oligonucleotide primer was 5′-[…]-3′ (Primer 2: SEQ ID NO: 2 in the sequence listing).
The PCR product was subjected to agarose electrophoresis, then a target DNA fragment was recovered from a single band corresponding to 2013 bases, digested with restriction enzymes HindIII and XhoI, and introduced into the HindIII/XhoI site of vector pCMV-Script (Stratagene) to obtain SGLT1 expressing plasmid pCMV-SGLT1. A HindIII/XhoI fragment was excised from pCMV-SGLT1 and introduced into the BamHI/XhoI site of pENTR1A (Gateway, Invitrogen) to prepare pENTR-SGLT1. Retrovirus vector pLPCX (Clontech) into which Gateway Vector Conversion System Cassette A (Invitrogen) was introduced was used as the destination plasmid to prepare SGLT1 expressing retrovirus vector pLPCX-SGLT1.
2) Establishment of Human SGLT1 Expressing Cell
The retrovirus pLPCX-SGLT1 obtained in 1) was transfected into integrin αvβ3 expressing HEK-293 cells and, the cells were treated with antibiotic G418 (brand name, Geneticin: Invitrogen) and puromycin (Clontech) to obtain HEK-SGLT1 cells stably expressing the target vector having resistance. The stably expressing cells were cultured and maintained in DMEM medium containing […] G418, […] puromycin, 3 mM KGT-1075, and 10% FBS.
3) Determination of SGLT1 Inhibiting Activity
HEK-SGLT1 cells were suspended at a density of 10^6 cells/mL in DMEM medium containing […] G418, 1 mg/ml puromycin, and 10% FBS, and 100 μL was seeded in each well of a type 1 collagen-coated 96-well culture plate (Corning). On the following day, the medium was replaced with a sugar uptake buffer (10 mM HEPES [pH 7.5], 5 mM Tris-HCl [pH 7.5], 140 mM NaCl, 2 mM KCl, 1 mM CaCl2, 1 mM MgCl2), and the cells were cultured with 1 mM [^14C]-α-methyl-D-glucopyranoside (0.1 mCi) and the test compound at 37° C. for 30 min and then washed 3 times with a washing buffer (10 mM HEPES [pH 7.5], 5 mM Tris-HCl [pH 7.5], 140 mM choline chloride, 2 mM KCl, 1 mM CaCl2, 1 mM MgCl2). 100 μL of liquid scintillation cocktail (brand name, Supermix: Perkin-Elmer) was added to each well of the 96-well plate and stirred for 10 min, and then radioactivity was determined with micro β (Perkin-Elmer), a type of liquid scintillation counter. The value as the sugar uptake activity was obtained by deducting the radioactivity in the presence of an excess amount of an SGLT1 inhibiting compound as the background from each measured value, the inhibition rate (%) was calculated from the control sugar uptake activity obtained without using a test compound and the sugar uptake activity obtained using a test compound having a predetermined the concentration, and concentrations of the test compound at which the sugar uptake activity was inhibited by 50% were assessed.

IC50	SMILES
54 nM	COc1ccc(Cc2ccc(CO)cc2O[C@@H]2O[C@H]([C@@H](C)O)[C@@H](O)[C@H](O)[C@H]2O)cc1 [Example 9, 2-(4-Methoxybenzyl)-5-hydroxymethylphenyl 7-deoxy-D-glycero-β-D-gluco-heptopyranoside]
207 nM	COc1ccc(Cc2cc(CO)cnc2O[C@@H]2O[C@H]([C@@H](C)O)[C@@H](O)[C@H](O)[C@H]2O)cc1 [Example 38, 3-(4-Methoxybenzyl)-5-hydroxymethylpyridin-2-yl 7-deoxy-D-glycero-β-D-gluco-heptopyranoside]
87 nM	CCc1ccc(Cc2ccc(N)cc2O[C@@H]2O[C@H](C(C)O)[C@@](C)(O)[C@H](O)[C@H]2O)cc1 (stereo partly drawn) [Example 41, 5-Amino-2-(4-ethylbenzyl)phenyl 4-C-methyl-7-deoxy-glycero-β-D-gluco-heptapyranoside]
63 nM	COc1ccc(Cc2c(Cl)cccc2O[C@@H]2O[C@H]([C@@H](C)O)[C@@H](O)[C@H](O)[C@H]2O)cc1 [Example 42, 3-Chloro-2-(4-methoxybenzyl)phenyl 7-deoxy-D-glycero-β-D-gluco-heptopyranoside]
212 nM	COc1ccc(Cc2c(Cl)cc(C)cc2O[C@@H]2O[C@H]([C@@H](C)O)[C@@H](O)[C@H](O)[C@H]2O)cc1 [Example 43, 3-Chloro-5-methyl-2-(4-methoxybenzyl)phenyl 7-deoxy-D-glycero-β-D-gluco-heptopyranoside]
29 nM	COc1ccc(Cc2c(Cl)cc(CO)cc2O[C@@H]2O[C@H]([C@@H](C)O)[C@@H](O)[C@H](O)[C@H]2O)cc1 [Example 44, 3-Chloro-5-hydroxymethyl-2-(4-methoxybenzyl)phenyl 7-deoxy-D-glycero-β-D-gluco-heptopyranoside]
118 nM	CCOc1ccc(Cc2c(Cl)cc(CO)cc2O[C@@H]2O[C@H]([C@@H](C)O)[C@@H](O)[C@H](O)[C@H]2O)cc1 [Example 45, 3-Chloro-2-(4-ethoxybenzyl)-5-hydroxymethyl-phenyl 7-deoxy-D-glycero-β-D-gluco-heptopyranoside]
56 nM	CCOc1ccc(Cc2c(F)cc(CO)cc2O[C@@H]2O[C@H]([C@@H](C)O)[C@@H](O)[C@H](O)[C@H]2O)cc1 [Example 46, 2-(4-Ethoxybenzyl)-3-fluoro-5-hydroxymethyl-phenyl 7-deoxy-D-glycero-β-D-gluco-heptopyranoside]
66 nM	CCc1ccc(Cc2c(F)cc(CO)cc2O[C@@H]2O[C@H]([C@@H](C)O)[C@@H](O)[C@H](O)[C@H]2O)cc1 [Example 47, 2-(4-Ethylbenzyl)-3-fluoro-5-hydroxymethyl-phenyl 7-deoxy-D-glycero-β-D-gluco-heptopyranoside]
217 nM	COc1ccc(Cc2c(Cl)cc(CO)cc2O[C@@H]2O[C@H]([C@H](C)O)[C@@H](O)[C@H](O)[C@H]2O)cc1 [Example 57, 3-Chloro-5-hydroxymethyl-2-(4-methoxybenzyl)phenyl 7-deoxy-L-glycero-β-D-gluco-heptopyranoside]
81 nM	C[C@@H](O)[C@H]1O[C@@H](Oc2cc(CO)ccc2Cc2ccc(OC3CC3)cc2)[C@H](O)[C@@H](O)[C@@H]1O [Example 60, 2-(4-Cyclopropyloxybenzyl)-5-hydroxymethylphenyl 7-deoxy-D-glycero-β-D-gluco-heptopyranoside]
155 nM	C[C@@H](O)[C@H]1O[C@@H](Oc2cc(CO)ccc2Cc2ccc(C3CC3)cc2)[C@H](O)[C@@H](O)[C@@H]1O [Example 62, 2-(4-Cyclopropylbenzyl)-5-hydroxymethylphenyl 7-deoxy-D-glycero-β-D-gluco-heptopyranoside]
68 nM	C[C@@H](O)[C@H]1O[C@@H](Oc2cc(CO)cc(F)c2Cc2ccc(OC3CC3)cc2)[C@H](O)[C@@H](O)[C@@H]1O [Example 63, 2-(4-Cyclopropoxybenzyl)-3-fluoro-5-hydroxymethyl-phenyl 7-deoxy-D-glycero-β-D-gluco-heptopyranoside]
